Experimental data as given in US10766914B2, “DNA alkylating agents” (OBI PHARMA, INC., priority 2015, dated 2020).

Key:
H460 cells = assay: Proliferation assay in H460 cells (2 hr exposure, AlamarBlue); assay type: cell-based, human; conditions: Homo sapiens, NCI-H460, 2 hrs exposure, wash, 70 hrs growth, read-out: IC 50 in proliferation assay in H460 cells
Description: In vitro proliferation data on the H460 […] human tumor cell line is reported above in the compound table.
Specifically, exponentially growing cells were seeded at a density of 4×10^3 cells per well in a 96 well plate and incubated at 37° C. in 5% CO2, 95% air and 100% relative humidity for 24 hours prior to addition of test compounds. Compounds were solubilized in 100% DMSO at 200 times the desired final test concentration. At the time of drug addition, compounds were further diluted to 4 times the desired final concentration with complete medium. Aliquots of 50 μl of compound at specified concentrations were added to microtiter wells already containing 150 μl of medium, resulting in the final drug concentration reported. After drug addition, the plates were incubated for an additional 2 hours at 37° C., 5% CO2, 95% air, and 100% relative humidity, then the drug was washed off and fresh medium was added and the plates were incubated for addition 70 hrs at 37° C., 5% CO2, 95% air and 100% relative humidity. At the end of this incubation, the viable cells were quantified using the AlamarBlue assay. The drug concentration resulting in growth inhibition of 50% (IC50) was calculated using Prism software (Irvine, Calif.), and the results were listed in the table.

[1] = tested on: A375 melanoma human tumor xenograft; assay: Example 4-C antitumor efficacy, ectopic A375 melanoma xenograft model; assay type: in vivo, female nude mice (nu/nu); conditions: qd × 5 × 2, ip
Source text: (§1) Specific pathogen-free homozygous female nude mice (nu/nu, Charles River Laboratories) were used. Mice were given food and water ad libitum and housed in microisolator cages. Four to six week old animals were identified by microchips (Locus Technology, Manchester, Md., USA) at the time of the experiments. All animal studies were approved by the Institutional Animal Care and Use Committee at Threshold Pharmaceuticals, Inc.
(§2) All cell lines were from the American Type Culture Collection (ATCC, Rockville, Md., USA).
(§3) Cells were mixed with Matrigel (50% with exception for 30% in the H460) and 0.2 ml per mouse were subcutaneously implanted to the flank area of the animals. When tumor size reached 100-150 250 mm3, mice were randomized into experimental or vehicle groups with 10 mice/group and treatment was started (Day 1). The tested compounds were formulated in 5% DMSO in D5W. The regimens employed in the examples include IP, QD×5/wk (5 days on, 2 days off) as one cycle, for a total of 2 cycles; IP, once; IP, weekly for total 3 weeks; and IV, weekly for 3 weeks. Tumor growth and body weight were measured twice a week. Tumor volume was calculated as (length×width2)/2. Drug efficacy was assessed as Tumor Growth Inhibition (TGI) and Tumor Growth Delay (TGD). TGI was defined as (1−ΔT/ΔC)×100, where ΔT/ΔC presented the ratio of the change in mean (or median, if variation within the group was relatively large) tumor volume of the treated group and of the control group. TGD was calculated as the extra days for the treated tumor to reach 500 mm3 or 1000 mm3 as compared to the control group. Animals were culled when individual tumor size reached over 2000 mm3 or mean tumor volume exceeded 1000 mm3 in the group. Data are expressed as the mean±SEM. One-way analysis of variance with Dunnett post comparison test (GraphPad Prism 4) or two-tailed student's t-test were used for analysis. A P level <0.05 was considered statistically significant.
his study employed an A375 melanoma human tumor xenograft model and various compounds provided herein were compared to thiotepa and the approved anti melanoma drug, nab-Paclitaxel.

[2] = Example 4-C body weight change, A375 xenograft study; assay type: in vivo, female nude mice (nu/nu); conditions: 10 mpk, qd × 5 × 2, ip
Description: as §3
his study employed an A375 melanoma human tumor xenograft model and various compounds provided herein were compared to thiotepa and the approved anti melanoma drug, nab-Paclitaxel. The antitumor effects and the safety of administration are graphically illustrated below.

[3] = Pharmacokinetics in CD-1 mice following a single intraperitoneal dose (parent and TH2660); conditions: mouse, in vivo, ip, parent compound
Description: The pharmacokinetics of TH2873, TH2883, TH2888, TH2890, TH2901 and TH2926 were determined in CD-1 mice following a single intraperitoneal dose.
The pharmacokinetics of TH2660, the active metabolite, following a single intraperitoneal dose of TH2873, TH2883, TH2888, TH2890, TH2901 and TH2926 are shown below.

A549 NSCLC xenograft = assay: Example 4-D antitumor efficacy, ectopic A549 NSCLC xenograft model; assay type: in vivo, female nude mice (nu/nu)
Source text: as §1, §2, §3
(§4) The compounds were tested in another A549 model. The compounds were dosed as follows. Daily IP dosing: 5 doses then 2 days off then 5 more doses starting at 100 mm^3 tumors on day 1 (10 animals per group average tumor volume). The antitumor effects and the safety of administration are graphically illustrated below.

[4] = Example 4-D body weight change and lethal toxicity, A549 xenograft study; assay type: in vivo, female nude mice (nu/nu)
Description: as §3, §4

AKR1C3 = biological target: T1, AKR1C3 (Homo sapiens, UniProt P42330); assay: Activation by the aldoketo reductase AKR1C3 (% remaining, LC/MS/MS); assay type: biochemical; conditions: for % Remaining: 5 μM, 25 μg/mL AKR1C3, 2 mM NADPH, 37° C.
T1 sequence (P42330 1-323): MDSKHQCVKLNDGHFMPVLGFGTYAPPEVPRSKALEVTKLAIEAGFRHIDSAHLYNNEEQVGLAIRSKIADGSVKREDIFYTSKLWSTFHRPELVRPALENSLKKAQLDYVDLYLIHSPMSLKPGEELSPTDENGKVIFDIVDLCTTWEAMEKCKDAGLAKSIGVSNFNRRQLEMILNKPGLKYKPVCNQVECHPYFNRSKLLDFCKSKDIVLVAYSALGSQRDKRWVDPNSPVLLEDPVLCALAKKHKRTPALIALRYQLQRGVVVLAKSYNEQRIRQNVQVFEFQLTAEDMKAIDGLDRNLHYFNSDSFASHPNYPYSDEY
Description: Recombinant human AKR1C3 was diluted to 25 μg/mL in phosphate buffered saline (PBS), pH 7.4 (37° C.), containing 2 mM NADPH. TH2870 or progesterone (positive control) in 30% methanol/70% water was added to the reaction mixture at a final concentration of 5 μM and incubated at 37° C. for 120 minutes. At various times up to 120 min, 50 μL of the reaction mixture was taken and 200 μL acetonitrile containing propranolol as internal standard was added, vortex-mixed and centrifuged for 10 min. The resulting supernatant (5 μL) was injected into a LC/MS/MS for quantitation of % remaining TH2870 and progesterone. The compounds were tested in duplicate.

In the case of O=[N+]([O-])c1ccc(COP(=O)(N2CC2)N2CC2)cc1Oc1ccc2c(c1)OCO2 [Compound 2888], the IC50 (H460 cells) is reported as 3 nM, the “TGD 500” value ([1]; 10 mpk) is reported as 6 days and the “TGD 1000” value ([1]; 10 mpk) is reported as 6 days. For the same compound, the inhibition in vivo at 10 mg/kg ([1]; Mus musculus, A-375, 10 mpk, read-out: TGI) was 37.3%, the “Max. BW loss %” value [2] was 4.8% and the AUC [3] was 1600 ng·h/mL. The Cmax [3] was 5810 ng/mL, the Tmax [3] was 5 min and the half-life [3] was 10.9 min.

O=[N+]([O-])c1ccc(COP(=O)(N2CC2)N2CC2)cc1Oc1ccc2ncsc2c1 [Compound 2901] showed an IC50 (H460 cells) of 3 nM, an AUC [3] of 2580 ng·h/mL and a Cmax [3] of 5120 ng/mL. For the same compound, the Tmax [3] was 5 min and the half-life [3] was 12.1 min.

In the case of CC(OP(=O)(N1CC1)N1CC1)c1ccc([N+](=O)[O-])c(Oc2ccc(S(C)(=O)=O)cc2)c1 (stereo not drawn) [Compound 2883], the IC50 (H460 cells) is reported as 30 nM, the “TGD 500” value (A549 NSCLC xenograft; 10 mg/kg IP QD × 5/wk × 2 wks) is reported as greater than 85 days and the TGI (A549 NSCLC xenograft; 10 mg/kg IP QD × 5/wk × 2 wks) is reported as 93.5%. The “Max. BW loss %” value ([4]; 10 mg/kg IP QD × 5/wk × 2 wks) was 15.8%, the “Lethal Tox” value ([4]; 10 mg/kg IP QD × 5/wk × 2 wks, 10 animals per group) was 5 and the AUC [3] was 9080 ng·h/mL. The Cmax [3] was 7570 ng/mL, the Tmax [3] was 15 min and the half-life [3] was 23.4 min.

Compound CC(OP(=O)(N1CC1)N1CC1)c1ccc([N+](=O)[O-])c(Oc2ccc(NS(=O)(=O)CCl)cc2)c1 (stereo not drawn) [Compound 2926] has an IC50 (H460 cells) of 20 nM, an AUC [3] of 9650 ng·h/mL and a Cmax [3] of 8340 ng/mL. It also gave a Tmax [3] of 15 min and a half-life [3] of 34.2 min.

In the case of CC(=O)[C@H]1CC[C@H]2[C@@H]3CCC4=CC(=O)CC[C@]4(C)[C@H]3CC[C@]12C [Progesterone, progesterone, reference compound], the “% Remaining” value (AKR1C3; 0 min) is reported as 100%, the “% Remaining” value (AKR1C3; 15 min) is reported as 70.8% and the “% Remaining” value (AKR1C3; 30 min) is reported as 49.2%. The “% Remaining” value (AKR1C3; 60 min) was 20.1%, the “% Remaining” value (AKR1C3; 90 min) was 10.6% and the “% Remaining” value (AKR1C3; 120 min) was 6.40%. The “disappearance in the presence of AKR1C3” value (AKR1C3; in words) was “reduced slowly”.

With O=[N+]([O-])c1ccc(COP(=O)(N2CC2)N2CC2)cc1Oc1ccc(-c2ccccc2)cc1 [Compound 2958] the IC50 (H460 cells) was 2 nM, the “TGD 500” value (A549 NSCLC xenograft; 5 mg/kg IP QD × 5/wk × 2 wks) was 44 days and the TGI (A549 NSCLC xenograft; 5 mg/kg IP QD × 5/wk × 2 wks) was 77.9%. The “Max. BW loss %” value ([4]; 5 mg/kg IP QD × 5/wk × 2 wks) was 2.1% and the “Lethal Tox” value ([4]; 5 mg/kg IP QD × 5/wk × 2 wks, 10 animals per group) was 0.

With CC(OP(=O)(N1CC1)N1CC1)c1ccc([N+](=O)[O-])c(Oc2ccc3ccccc3c2)c1 (stereo not drawn) [Compound 2955] the IC50 (H460 cells) was 6 nM, the “TGD 500” value (A549 NSCLC xenograft; 40 mg/kg IP QD × 5/wk × 2 wks) was 47 days and the TGI (A549 NSCLC xenograft; 40 mg/kg IP QD × 5/wk × 2 wks) was 78.9%. For the same compound, the “Max. BW loss %” value ([4]; 40 mg/kg IP QD × 5/wk × 2 wks) was 0.6% and the “Lethal Tox” value ([4]; 40 mg/kg IP QD × 5/wk × 2 wks, 10 animals per group) was 1.

In the case of CC(OP(=O)(N1CC1)N1CC1)c1ccc([N+](=O)[O-])c(Oc2ccc3ncccc3c2)c1 (stereo not drawn) [Compound 2952], the IC50 (H460 cells) is reported as 3 nM, the “TGD 500” value (A549 NSCLC xenograft; 20 mg/kg IP QD × 5/wk × 2 wks) is reported as 70 days and the TGI (A549 NSCLC xenograft; 20 mg/kg IP QD × 5/wk × 2 wks) is reported as 91.8%. The “Max. BW loss %” value ([4]; 20 mg/kg IP QD × 5/wk × 2 wks) was 1.2% and the “Lethal Tox” value ([4]; 20 mg/kg IP QD × 5/wk × 2 wks, 10 animals per group) was 1.

In the case of CC(OP(=O)(N1CC1)N1CC1)c1ccc([N+](=O)[O-])c(Oc2ccc(Cl)cc2)c1 (stereo not drawn) [Compound 2860], the IC50 (H460 cells) is reported as 10 nM.

CC(OP(=O)(N1CC1)N1CC1)c1ccc([N+](=O)[O-])c(Oc2ccc3ocnc3c2)c1 (stereo not drawn) [Compound 2914] gave an IC50 (H460 cells) of 30 nM.

With CC(OP(=O)(N1CC1)N1CC1)c1ccc([N+](=O)[O-])c(Oc2cccc(C(F)(F)F)c2)c1 (stereo not drawn) [Compound 2871] the IC50 (H460 cells) was 30 nM.

Compound CNC(=O)c1ccc(Oc2cc(C(C)OP(=O)(N3CC3)N3CC3)ccc2[N+](=O)[O-])cc1 (stereo not drawn) [Compound 2909] has an IC50 (H460 cells) of 10 nM.

For Cc1nc2ccc(Oc3cc(COP(=O)(N4CC4)N4CC4)ccc3[N+](=O)[O-])cc2s1 [Compound 2931], the IC50 (H460 cells) was 1 nM, the “Max. BW loss %” value ([4]; 5 mg/kg IP QD × 5) was 25.0% and the “Lethal Tox” value ([4]; 5 mg/kg IP QD × 5, 10 animals per group) was 10.
